This note sets out measurements from ChEMBL document CHEMBL1201862, “PubChem BioAssay data set” (2004).

Some test systems named below: NCI-H460; SF-268; CAKI-1; IGROV-1; M14; NCI-H226; SK-MEL-28; CCRF-CEM; DU-145; MOLT-4; SNB-19; K562; MDA-MB-231; HOP-92; A549; COLO 205; PC-3; OVCAR-3; RXF 393; SR.
What all share (assay): NCI tumour cell line growth inhibition, 48 h

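96-well plates; 48 h exposure; 5 concentrations. Endpoints by linear interpolation between flanking doses. Not reached: highest tested concentration assigned. At the GI50, growth is halved.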 Activity calls are given as the source filed them. Cut-off read from the data, not from the text of the source: active = GI50 up to about 1.1 µM and inactive = higher. Some results are limits rather than exact numbers.

Regarding `Cc1cc2[nH]c3c(C#N)c4c(c(=O)n3c2cc1C)CCCC4`, the GI50 was > 100 µM (inactive) in the assay with NCI-H460; 79.3 µM (inactive) with SF-268; > 100 µM (inactive) in the assay with CAKI-1; > 100 µM (inactive) in the assay on IGROV-1; 14.5 µM (inactive) in the assay with M14; > 100 µM (inactive) in the assay with NCI-H226. The GI50 was > 100 µM (inactive) with SK-MEL-28; > 100 µM (inactive) in the assay with CCRF-CEM; > 100 µM (inactive) in the assay with DU-145; > 100 µM (inactive) in the assay with MOLT-4; 31 µM (inactive) in the assay with SNB-19; 64.9 µM (inactive) in the assay with K562. The GI50 with MDA-MB-231 is > 100 µM (inactive); in the assay on HOP-92, 87.7 µM (inactive); in the assay with A549, > 100 µM (inactive); with COLO 205 it was > 100 µM (inactive); in the assay on PC-3, > 100 µM (inactive); in the assay on OVCAR-3, > 100 µM (inactive).
Regarding `CC[N+](C)(CC)CCN1C(=O)c2ccccc2S1(=O)=O`, the GI50 in the assay with NCI-H460, with SF-268, in the assay with CAKI-1, in the assay with IGROV-1, in the assay with M14 and with NCI-H226 was > 100 µM (inactive) in each case. The GI50 was > 100 µM (inactive) in the assay with SK-MEL-28; > 100 µM (inactive) with CCRF-CEM; > 100 µM (inactive) in the assay with DU-145; 39.8 µM (inactive) in the assay with MOLT-4; > 100 µM (inactive) in the assay with SNB-19; > 100 µM (inactive) in the assay with RXF 393. The GI50 in the assay with MDA-MB-231, in the assay on HOP-92, with A549, in the assay on COLO 205, with PC-3 and in the assay on OVCAR-3 was > 100 µM (inactive) throughout.
With `CC(=O)c1csc2c1C(=O)c1scc(C(C)=O)c1C2=O`, the GI50 in the assay on NCI-H460 is 1.03 µM (active); in the assay with SF-268, 1.47 µM (inactive); in the assay on CAKI-1, 2.22 µM (inactive); in the assay with IGROV-1 it was 1.57 µM (inactive); in the assay on M14, 1.63 µM (inactive); in the assay on NCI-H226 it was 2.25 µM (inactive). Further, the GI50 in the assay with SK-MEL-28 is 1.97 µM (inactive); in the assay with CCRF-CEM, 0.5 µM (active); in the assay on DU-145, 1.87 µM (inactive); in the assay with MOLT-4 it was 0.347 µM (active); in the assay on SNB-19, 1.8 µM (inactive); in the assay on K562 it was 0.74 µM (active). The GI50 with RXF 393 was 2.13 µM (inactive); with MDA-MB-231, 0.348 µM (active); in the assay on HOP-92, 2 µM (inactive); with A549 it was 1.97 µM (inactive); in the assay on COLO 205, 1.97 µM (inactive); in the assay on PC-3, 2.84 µM (inactive). For the same compound, the GI50 in the assay on OVCAR-3 is 0.231 µM (active).
Take `C(CCCCc1nnc(N2CCCCC2)o1)CCCc1nnc(N2CCCCC2)o1`: the GI50 in the assay with NCI-H460, in the assay on SF-268, in the assay with CAKI-1, in the assay on IGROV-1, with M14 and in the assay with NCI-H226 was > 100 µM (inactive) in each case. Moreover, the GI50 with SK-MEL-28, in the assay with CCRF-CEM, with DU-145, in the assay on MOLT-4, in the assay on SNB-19 and with K562 was > 100 µM (inactive) in each case. The GI50 with RXF 393, in the assay on MDA-MB-231, with HOP-92, in the assay on A549, in the assay on COLO 205 and in the assay with PC-3 was > 100 µM (inactive) in each case. Besides, in the assay with OVCAR-3, the GI50 was > 100 µM (inactive).
On to `CCO[C@@]1(COCc2ccccc2)OC(=O)C[C@@H]1N1C(=O)OC[C@@H]1c1ccccc1`, for which the GI50 with NCI-H460 is > 100 µM (inactive); in the assay with SF-268 it was > 100 µM (inactive); with CAKI-1, 25.8 µM (inactive); in the assay on IGROV-1 it was > 100 µM (inactive); in the assay with M14, > 100 µM (inactive); with NCI-H226, > 100 µM (inactive). Besides, the GI50 in the assay with SK-MEL-28 was > 100 µM (inactive); in the assay on CCRF-CEM, > 100 µM (inactive); with DU-145, > 100 µM (inactive); with MOLT-4 it was 58.9 µM (inactive); in the assay with SNB-19, > 100 µM (inactive); in the assay with K562, > 100 µM (inactive). The GI50 with RXF 393, in the assay with MDA-MB-231, with HOP-92, in the assay on A549, in the assay on COLO 205 and in the assay with PC-3 was > 100 µM (inactive) each time. Further, the GI50 in the assay on OVCAR-3 is 41.5 µM (inactive).
Turning to `CN(Cc1cnc2nc(N)nc(N)c2n1)c1ccc(C(=O)NCCS(=O)(=O)O)cc1`, the GI50 in the assay on NCI-H460, with SF-268, in the assay on CAKI-1, in the assay with IGROV-1, with M14 and in the assay on NCI-H226 was > 100 µM (inactive) in each case. For the same compound, the GI50 in the assay with SK-MEL-28 was > 100 µM (inactive); with DU-145 it was > 100 µM (inactive); with SR, 67.6 µM (inactive); in the assay with MOLT-4 it was > 100 µM (inactive); in the assay on SNB-19, > 100 µM (inactive); in the assay with K562, > 100 µM (inactive). Besides, the GI50 with MDA-MB-231, with A549, in the assay on COLO 205, in the assay with PC-3 and in the assay with OVCAR-3 was > 100 µM (inactive) in each case.
For `COC(=O)[C@@H](Cc1ccccc1)NNC(=O)OC(C)(C)C`, the GI50 in the assay with NCI-H460, in the assay on SF-268, in the assay with IGROV-1, in the assay on SK-MEL-28, in the assay on CCRF-CEM and in the assay with DU-145 was > 100 µM (inactive) in each case. Further, the GI50 in the assay on SR, in the assay with MOLT-4, in the assay on K562, in the assay on RXF 393, with MDA-MB-231 and with A549 was > 100 µM (inactive) each time. For the same compound, the GI50 in the assay on COLO 205, with PC-3 and with OVCAR-3 was > 100 µM (inactive) in each case.
As for `COc1ccc(-c2cc(=O)c3c(O)c(OC)c(O)cc3o2)cc1O`, the GI50 in the assay with NCI-H460 is 3.3 µM (inactive); in the assay on SF-268 it was 10.7 µM (inactive); with CAKI-1, 13.9 µM (inactive); with IGROV-1, 4.62 µM (inactive); in the assay with M14, 3.4 µM (inactive); in the assay on NCI-H226, 35 µM (inactive). Further, the GI50 was 22.5 µM (inactive) in the assay on SK-MEL-28; 3.7 µM (inactive) with CCRF-CEM; 7.64 µM (inactive) in the assay with DU-145; 3.19 µM (inactive) in the assay on MOLT-4; 13.6 µM (inactive) in the assay with SNB-19; 0.679 µM (active) with K562. In addition, the GI50 was 9.4 µM (inactive) in the assay on RXF 393; 5.51 µM (inactive) with MDA-MB-231; 15 µM (inactive) with HOP-92; 6.4 µM (inactive) in the assay on A549; 20.6 µM (inactive) in the assay with COLO 205; 10 µM (inactive) with PC-3. For the same compound, the GI50 with OVCAR-3 is 9.04 µM (inactive).
In the case of `CCOP(=O)(OCC)/C(=C/c1ccccc1)CC(C)=O`, the GI50 in the assay with NCI-H460, with SF-268, in the assay on CAKI-1, in the assay on IGROV-1, in the assay with M14 and with NCI-H226 was > 100 µM (inactive) each time. Besides, the GI50 in the assay on SK-MEL-28, in the assay with CCRF-CEM, in the assay on DU-145, in the assay with MOLT-4, in the assay on SNB-19 and in the assay with K562 was > 100 µM (inactive) each time. The GI50 in the assay on RXF 393, with MDA-MB-231, in the assay on HOP-92, with A549, with COLO 205 and with PC-3 was > 100 µM (inactive) in each case. Besides, the GI50 in the assay with OVCAR-3 was > 100 µM (inactive).
`CN1C(=O)C(C(=O)Nc2ccccn2)C2C[C@@]1(C)Oc1ccccc12` (stereo partly specified): the GI50 with NCI-H460, in the assay on SF-268, in the assay on CAKI-1, in the assay on IGROV-1, with M14 and in the assay with NCI-H226 was > 100 µM (inactive) throughout. The GI50 in the assay with SK-MEL-28 is > 100 µM (inactive); in the assay on CCRF-CEM, > 100 µM (inactive); with DU-145 it was > 100 µM (inactive); with MOLT-4 it was 62.7 µM (inactive); in the assay with SNB-19 it was > 100 µM (inactive); in the assay with K562 it was > 100 µM (inactive). In addition, the GI50 in the assay with RXF 393, with MDA-MB-231, in the assay with HOP-92, in the assay with A549, with COLO 205 and in the assay with PC-3 was > 100 µM (inactive) each time. In addition, the GI50 in the assay with OVCAR-3 was > 100 µM (inactive).
With `c1ccc(C/C(=N\Nc2nc3ccccc3[nH]2)c2ccccn2)cc1`, the GI50 was 0.126 µM (active) with NCI-H460; 0.0444 µM (active) in the assay with SF-268; 0.056 µM (active) with CAKI-1; < 0.01 µM (active) with IGROV-1; < 0.0288 µM (active) in the assay on M14; < 0.0279 µM (active) with NCI-H226. Besides, the GI50 in the assay with SK-MEL-28 is 0.231 µM (active); with CCRF-CEM, < 0.01 µM (active); in the assay on DU-145, 0.291 µM (active); in the assay with MOLT-4, < 0.01 µM (active); in the assay with SNB-19 it was 0.254 µM (active); with K562, 0.0228 µM (active). The GI50 in the assay on RXF 393 was 0.166 µM (active); in the assay with MDA-MB-231, 0.0396 µM (active); in the assay on HOP-92, 0.0206 µM (active); in the assay on A549, 0.069 µM (active); in the assay with COLO 205, < 0.01 µM (active); with PC-3, < 0.01 µM (active). The GI50 with OVCAR-3 was < 0.01 µM (active).
